Laboratory results: patent publication US20080262097A1, “Formulations” (priority 2005, published 2008)
In brackets after ≈: the same amount, converted by molar mass. Where two headings read alike, the source gives them in different places.

What was measured:
S. aureus ATCC 12605 [1] = assay: Disc diffusion assay (DDA); assay type: cell-based, Staphylococcus aureus; conditions: zone diameter, 200 μg per disc
Procedure: (§1) The staphylococci and enterococci were cultured and maintained on Mueller-Hinton Medium (agar and broth) at pH 7.2; they were incubated aerobically at 37° C. for 24 hours.
(§2) A sterile paper disc was impregnated with a sample of the test compound and a minimum of 30 minutes allowed for the solvents to evaporate as far as possible. The disc was then placed on an agar plate onto which the test micro-organism had been inoculated. The plate was then incubated under the conditions described above, following which it was examined visually for signs of bacterial growth. If the test compound had antimicrobial activity, a circular zone of no growth would be obtained around the disc. The diameter of this zone of “inhibition” was measured using a ProtoCOL™ automated zone sizer (Synbiosis, Cambridge, UK). In general, a greater diameter and/or area of the zone of inhibition indicates a greater antimicrobial activity in the relevant test compound, although other factors such as test compound mobility through the agar gel may also influence the result.
(§3) The area of the zone of inhibition was calculated from the measured zone diameter (D) using the formula π(D/2)^2.

S. aureus CPHL VISA Mu3 = assay: Disc diffusion assay (DDA); assay type: cell-based, Staphylococcus aureus; conditions: zone diameter, 200 μg per disc
Procedure: as §1, §2, §3

S. aureus CPHL VISA Mu50 [2] = assay: Disc diffusion assay (DDA); assay type: cell-based, Staphylococcus aureus; conditions: zone diameter, 200 μg per disc
Procedure: as §1, §2, §3

S. aureus ATCC 12602 [3] = assay: Disc diffusion assay (DDA); assay type: cell-based, Staphylococcus aureus; conditions: zone diameter, 200 μg per disc
Procedure: as §1, §2, §3

S. aureus CPHL EMRSA 17 [4] = assay: Disc diffusion assay (DDA); assay type: cell-based, Staphylococcus aureus; conditions: zone diameter, 200 μg per disc
Procedure: as §1, §2, §3

S. aureus ATCC 12607 [5] = assay: Disc diffusion assay (DDA); assay type: cell-based, Staphylococcus aureus; conditions: zone diameter, 200 μg per disc
Procedure: as §1, §2, §3

S. aureus ATCC 12604 [6] = assay: Disc diffusion assay (DDA); assay type: cell-based, Staphylococcus aureus; conditions: zone diameter, 200 μg per disc
Procedure: as §1, §2, §3

S. aureus ATCC 12600-U [7] = assay: Disc diffusion assay (DDA); assay type: cell-based, Staphylococcus aureus; conditions: zone diameter, 200 μg per disc
Procedure: as §1, §2, §3

S. aureus ATCC 12606 [8] = assay: Disc diffusion assay (DDA); assay type: cell-based, Staphylococcus aureus; conditions: zone diameter, 200 μg per disc
Procedure: as §1, §2, §3

[9] = tested on: S. aureus CPHL GISA HO41340156; assay: Disc diffusion assay (DDA); assay type: cell-based, Staphylococcus aureus; conditions: zone diameter, 200 μg per disc
Procedure: as §1, §2, §3

S. aureus ATCC 25923 [10] = assay: Disc diffusion assay (DDA); assay type: cell-based, Staphylococcus aureus; conditions: zone diameter, 200 μg per disc
Procedure: as §1, §2, §3

S. aureus ATCC 12601 [11] = assay: Disc diffusion assay (DDA); assay type: cell-based, Staphylococcus aureus; conditions: zone diameter, 200 μg per disc
Procedure: as §1, §2, §3

S. aureus ATCC 12605 [12] = assay: MBC assay; assay type: cell-based; conditions: Staphylococcus aureus, ATCC12605
Procedure: as §1
(§4) This assay, normally carried out after an MIC assay, determines the minimum concentration of a compound that is lethal to the micro-organism being tested.
(§5) These samples were then individually sub-cultured on non-selective agar medium, under the incubation conditions described above. Following incubation they were examined visually for bacterial growth.

[13] = tested on: Staphylococcus xylosus ATCC 29971; assay: MBC assay; assay type: cell-based; conditions: ATCC29971
Procedure: as §1, §4, §5

[14] = tested on: S. epidermidis (NCTC 11047); assay: MBC assay; assay type: cell-based; conditions: Staphylococcus epidermidis, NCTC11047
Procedure: as §1, §4, §5

[15] = tested on: Staphylococcus simulans ATCC 27848; assay: MBC assay; assay type: cell-based; conditions: ATCC27848
Procedure: as §1, §4, §5

[16] = tested on: Staphylococcus cohnii ATCC 29974; assay: MBC assay; assay type: cell-based; conditions: ATCC29974
Procedure: as §1, §4, §5

S. aureus CPHL VISA Mu50 [17] = assay: MBC assay; assay type: cell-based; conditions: Staphylococcus aureus
Procedure: as §1, §4, §5

[18] = tested on: Staphylococcus capitis ATCC 27840; assay: MBC assay; assay type: cell-based; conditions: ATCC27840
Procedure: as §1, §4, §5

S. aureus ATCC 12602 [19] = assay: MBC assay; assay type: cell-based; conditions: Staphylococcus aureus, ATCC12602
Procedure: as §1, §4, §5

[20] = tested on: Staphylococcus haemolyticus ATCC 29970; assay: MBC assay; assay type: cell-based; conditions: ATCC29970
Procedure: as §1, §4, §5

S. aureus CPHL EMRSA 17 [21] = assay: MBC assay; assay type: cell-based; conditions: Staphylococcus aureus
Procedure: as §1, §4, §5

S. aureus ATCC 12607 [22] = assay: MBC assay; assay type: cell-based; conditions: Staphylococcus aureus, ATCC12607
Procedure: as §1, §4, §5

[23] = tested on: S. saprophyticus NCTC 7292; assay: MBC assay; assay type: cell-based; conditions: Staphylococcus saprophyticus, NCTC7292
Procedure: as §1, §4, §5

S. aureus ATCC 12604 [24] = assay: MBC assay; assay type: cell-based; conditions: Staphylococcus aureus, ATCC12604
Procedure: as §1, §4, §5

S. aureus ATCC 12600-U [25] = assay: MBC assay; assay type: cell-based; conditions: Staphylococcus aureus, ATCC12600
Procedure: as §1, §4, §5

S. aureus ATCC 12606 [26] = assay: MBC assay; assay type: cell-based; conditions: Staphylococcus aureus, ATCC12606
Procedure: as §1, §4, §5

[27] = tested on: Staphylococcus auricularis ATCC 33753; assay: MBC assay; assay type: cell-based; conditions: ATCC33753
Procedure: as §1, §4, §5

[28] = tested on: S. aureus CPHL GISA HO41340156; assay: MBC assay; assay type: cell-based; conditions: Staphylococcus aureus
Procedure: as §1, §4, §5

S. aureus ATCC 25923 [29] = assay: MBC assay; assay type: cell-based; conditions: Staphylococcus aureus, ATCC25923
Procedure: as §1, §4, §5

S. aureus ATCC 12601 [30] = assay: MBC assay; assay type: cell-based; conditions: Staphylococcus aureus, ATCC12601
Procedure: as §1, §4, §5

[31] = tested on: Staphylococcus warneri ATCC 27836; assay: MBC assay; assay type: cell-based; conditions: ATCC27836
Procedure: as §1, §4, §5

| Compound | DDA (S. aureus ATCC 12605 [1]) [mm] | DDA (S. aureus CPHL VISA Mu3) [mm] | DDA (S. aureus CPHL VISA Mu50 [2]) [mm] | DDA (S. aureus ATCC 12602 [3]) [mm] | DDA (S. aureus CPHL EMRSA 17 [4]) [mm] | DDA (S. aureus ATCC 12607 [5]) [mm] | DDA (S. aureus ATCC 12604 [6]) [mm] | DDA (S. aureus ATCC 12600-U [7]) [mm] | DDA (S. aureus ATCC 12606 [8]) [mm] | DDA [9] [mm] | DDA (S. aureus ATCC 25923 [10]) [mm] | DDA (S. aureus ATCC 12601 [11]) [mm] | MBC (S. aureus ATCC 12605 [12]) [mg/L] | MBC [16] [mg/L] | MBC [18] [mg/L] | MBC (S. aureus ATCC 12602 [19]) [mg/L] | MBC (S. aureus ATCC 12607 [22]) [mg/L] | MBC [27] [mg/L] | further results |
| --- | --- | --- | --- | --- | --- | --- | --- | --- | --- | --- | --- | --- | --- | --- | --- | --- | --- | --- | --- |
| O=C(OOC(=O)c1ccccc1)c1ccccc1 [benzoyl peroxide] | 12.20 | 10.90 | 11.64 | 12.73 | 11.74 | 12.31 | 12.52 | 12.20 | 11.68 | 12.16 | 10.86 | 11.68 | 250 (≈ 1030 µM) | 125 (≈ 516 µM) | 250 (≈ 1030 µM) | 125 (≈ 516 µM) | 250 (≈ 1030 µM) | 62.5 (≈ 258 µM) | MBC ([13]; Staphylococcus xylosus ATCC 29971, read-out: MBC): 250 mg/L (≈ 1030 µM); MBC ([14]; S. epidermidis NCTC 11047, read-out: MBC): 250 mg/L (≈ 1030 µM); MBC ([15]; Staphylococcus simulans ATCC 27848, read-out: MBC): > 250 mg/L; MBC (S. aureus CPHL VISA Mu50 [17]; S. aureus CPHL VISA Mu50 (Van intermediate), read-out: MBC): 250 mg/L (≈ 1030 µM); MBC ([20]; Staphylococcus haemolyticus ATCC 29970, read-out: MBC): 250 mg/L (≈ 1030 µM); MBC (S. aureus CPHL EMRSA 17 [21]): 125 to 250 mg/L (≈ 516 to 1030 µM); MBC ([23]; S. saprophyticus NCTC 7292, read-out: MBC): > 250 mg/L; MBC (S. aureus ATCC 12604 [24]; S. aureus ATCC 12604, read-out: MBC): 250 mg/L (≈ 1030 µM); MBC (S. aureus ATCC 12600-U [25]; S. aureus ATCC 12600-U, read-out: MBC): > 250 mg/L; MBC (S. aureus ATCC 12606 [26]; S. aureus ATCC 12606, read-out: MBC): 250 mg/L (≈ 1030 µM); MBC ([28]; S. aureus CPHL GISA HO41340156 (Van/Tec intermediate), read-out: MBC): 250 mg/L (≈ 1030 µM); MBC (S. aureus ATCC 25923 [29]; S. aureus ATCC 25923, read-out: MBC): 250 mg/L (≈ 1030 µM); MBC (S. aureus ATCC 12601 [30]; S. aureus ATCC 12601, read-out: MBC): 250 mg/L (≈ 1030 µM); MBC ([31]; Staphylococcus warneri ATCC 27836, read-out: MBC): > 250 mg/L |
| CC(C)(C)c1cc(O)ccc1O [TBHQ, t-butyl hydroquinone] | 59.55 | 50.73 | 50.11 | 57.66 | 51.05 | 54.50 | 55.03 | 51.24 | 53.34 | 75.37 | 44.70 | 57.34 | 3.9 (≈ 23.5 µM) | 7.8 (≈ 46.9 µM) | 3.9 (≈ 23.5 µM) | 7.8 (≈ 46.9 µM) | 3.9 (≈ 23.5 µM) | 1.95 (≈ 11.7 µM) | MBC ([13]; Staphylococcus xylosus): 15.6 mg/L (≈ 94 µM); MBC [14]: 7.8 mg/L (≈ 46.9 µM); MBC ([15]; Staphylococcus simulans): 31.2 mg/L (≈ 188 µM); MBC (S. aureus CPHL VISA Mu50 [17]; VISA): 7.8 mg/L (≈ 46.9 µM); MBC ([20]; Staphylococcus haemolyticus): 7.8 mg/L (≈ 46.9 µM); MBC (S. aureus CPHL EMRSA 17 [21]; S. aureus CPHL EMRSA 17 (resistance Met/β-lactams), read-out: MBC): 3.9 mg/L (≈ 23.5 µM); MBC [23]: 7.8 mg/L (≈ 46.9 µM); MBC (S. aureus ATCC 12604 [24]): 7.8 mg/L (≈ 46.9 µM); MBC (S. aureus ATCC 12600-U [25]): 7.8 mg/L (≈ 46.9 µM); MBC (S. aureus ATCC 12606 [26]): 7.8 mg/L (≈ 46.9 µM); MBC [28]: 15.6 mg/L (≈ 93.9 µM); MBC (S. aureus ATCC 25923 [29]): 7.8 mg/L (≈ 46.9 µM); MBC (S. aureus ATCC 12601 [30]): 15.6 mg/L (≈ 93.9 µM); MBC ([31]; Staphylococcus warneri): 7.8 mg/L (≈ 46.9 µM) |
